Data published in ChEMBL document CHEMBL1151188, “Cytotoxic withaphysalins from the leaves of Acnistus arborescens” (2004).
≈ marks a conversion by molar mass, not a printed value.

Key:
Format in all cases: functional
Conditions in all cases: read-out: ED50 (the source's name)
LNCaP = assay: Cytotoxicity against human LNCAP cells
MCF7 = assay: Cytotoxicity against human MCF7 cells
Lu1 = assay: Cytotoxicity against human Lu1 cells

| SMILES | EC50 (LNCaP) [µg/mL] | EC50 (MCF7) [µg/mL] | EC50 (Lu1) [µg/mL] |
| --- | --- | --- | --- |
| CC1=C(C)C(=O)O[C@@H]([C@]2(C)OC(=O)[C@]34CC[C@H]5[C@@H](C[C@H]6O[C@]67[C@@H](O)CCC(=O)[C@]57C)[C@@H]3CC[C@H]24)C1 (relative stereo) [WITHAPHYSALIN N] | > 20 | 15 (≈ 31 µM) | 9.3 (≈ 19.2 µM) |
| CCOC1O[C@@](C)([C@H]2CC(C)=C(C)C(=O)O2)[C@H]2CC[C@H]3[C@@H]4C[C@H]5O[C@]56[C@@H](O)C=CC(=O)[C@]6(C)[C@H]4CC[C@]123 (relative stereo) [WITHAPHYSALIN O] | 0.9 (≈ 1.76 µM) | 1 (≈ 1.95 µM) | 0.16 (≈ 0.312 µM) |
| CC1=C(C)C(=O)O[C@@H]([C@]2(C)OC(=O)[C@]34CC[C@H]5[C@@H](C[C@H]6O[C@]67[C@@H](O)C=CC(=O)[C@]57C)[C@@H]3CC[C@H]24)C1 (relative stereo) [WITHAPHYSALIN M] | 1 (≈ 2.07 µM) | 1.2 (≈ 2.49 µM) | 0.22 (≈ 0.456 µM) |
